Tests used:
KPC K8484 tumors = assay: KPC K8484 allografts treated with BYL-719 alone or combined: tumor response and survival; format: in vivo, mice
tumor models = assay: drug efficacy of PI3K pathway agents with modulation of glucose metabolism in murine tumor models; format: in vivo, mice
[1] = tested on: MLL-AF9 driven Acute Myeloid Leukemia; assay: syngeneic model of AML treated with BKM120 and ketogenic diet; format: in vivo, mice; conditions: BKM120 with ketogenic diet started before or with BKM120
Protocol: For AML studies, 10-12 weeks old male C57BL/6J mice were used for MLL-AF9 Ds-Red AML study (Approved protocol AC-AAAQ5405). For pre-treatment study with MLL-AF9 Ds-Red cells, keto and Keto/BKM group mice were given a ketogenic diet for 10 days prior to injection with MLL-AF9 Ds-Red cells (2×10^5 per mouse in 200 ul) via lateral tail vein. The day after iv injection, the mice were given 0.5% carboxymethyl cellulose (CMC) as vehicle control or BKM120 (37.5 mg/kg) by oral gavage for two weeks (5 out of 7 days). The mice were euthanized after two-week treatment to check the bone marrow for AML progress. The tumor progress was also monitored via IVIS spectrum machine.
For co-current treatment studies with MLL-AF9 Ds-Red cells, the mice were injected with MLL-AF9 Ds-Red cells (2×10^5 per mouse in 200 ul) via lateral tail vein. The day after iv injection, the mice were given vehicle or BKM120 (37.5 mg/kg) by oral gavage for two weeks. The Keto or Keto/BKM group were changed to a ketogenic diet on the same day. The mice were euthanized after two-week treatment to check the bone marrow for AML progress.
To check if Keto/BKM treatment affects the AML engraftment, Keto and Keto/BKM group mice were given a ketogenic diet for 10 days, then treated with vehicle or BKM120 by oral gavage for two weeks. […]

KPC allografts = KPC allografts treated with BKM120 and OSI-906; format: in vivo, mice; conditions: BKM120 combined with OSI-906, vs either drug alone
SGLT-2 = SGLT-2 (Homo sapiens (Human), UniProt P31639); conditions: read-out: IC50 of primary target; from Selleck Chem website; cited from earlier work
[2] = tested on: syngeneic K8484 KPC allografted tumors; assay: glucose/insulin feedback after single dose of BKM120 in mice with KPC allografts; format: in vivo; conditions: pretreatment before a single treatment with BKM120; for insulin released in response to BKM120 (c-peptide): c-peptide after 3 hours; for growth signaling through mTORC1 in the tumor (pS6): tumors harvested at 90 minutes
[3] = tested on: PIK3CA+MYC mutant murine breast tumor allografts, ES-278; assay: ES-278 breast tumor allografts with or without keto diet; format: in vivo, mice; conditions: combined with ketogenic diet
Source text: For solid tumor studies, Nude (genotype) and C57/BL6 mice were purchased at 8 weeks of age from Jackson laboratories (Bar Harbor, ME).

IGF1R/INSR = conditions: from Selleck Chem website; read-out: IC50 of primary target; cited from earlier work
AKT1/2/3 = conditions: from Selleck Chem website; read-out: IC50 of primary target; cited from earlier work
[4] = tested on: BT-549 breast cancer cells; assay: proliferation in minimal growth media with BKM120 and insulin; format: cell-based, Human; conditions: insulin 10 ng/ml
[5] = tested on: ES272 Pik3ca mutant breast cancer allograft; assay: Pik3ca mutant breast allografts, ketogenic diet, BYL-719 and exogenous insulin; format: in vivo, mice; conditions: 0.4 mU insulin 15 minutes after each dose of PI3K inhibitor
Protocol: To further test whether the improved response to PI3K inhibitors while on a ketogenic diet is a consequence of lowering blood insulin levels, the inventors attempted to “rescue” the PI3K reactivation using exogenous insulin. A cohort of the mice bearing Pik3ca mutant breast allografts were treated with the combination of a ketogenic diet and BYL-719, and then given 0.4 mU of insulin 15 minutes after each dose of PI3K inhibitor (FIG. 4B).

[6] = tested on: MDA-MB-468 breast cancer cells; assay: proliferation in minimal growth media with BKM120 and insulin; format: cell-based, Human; conditions: insulin 10 ng/ml
[7] = tested on: PC-3 prostate adenocarcinoma cells; assay: as above; format: cell-based; conditions: insulin 10 ng/ml
KPC cells = assay: signaling and proliferation of KPC cells with PI3K inhibitor and insulin; format: cell-based, Mouse
Protocol: To test whether or not these spikes in insulin were stimulating PI3K signaling in the context of PI3K inhibition, KPC cells were treated in vitro with the PI3K inhibitors in the presence or absence of 10 ng/ml insulin, the level observed in the mice within 15-30 min after drug administration (FIG. 1D).
For signaling assays, cells were washed 1× in PBS and placed in starvation media (−FBS) for 6-18 hours depending upon cell line and treated 1 hour prior to harvesting with PI3K inhibitors as indicated alone or in combination with insulin 10 minutes prior to harvesting. Three-dimensional culture and dose response experiments of patient derived organoids were run as previously described. In brief, ˜1000 cells were plated in 10 ul of 1:1 matrigel to culture media in 96 well angiogenesis plates and allowed to solidify for 30 min at 37 degrees before 70 ul of culture media was added. Organoids were then treated in triplicate in a log scale dose response and CellTiter-Glo assay (Promega) was run at 96 hours to determine the IC50 values. Knockdown of insulin receptor was achieved using a doxycycline inducible shRNA strategy. For generation of miR-E shRNAs, 97-mer oligonucleotides were purchased (IDT Ultramers) coding for predicted shRNAs using an siRNA predictional tool Splash RNA (see website at splashrna.mskcc.org/).

KPC allografted tumors = format: in vivo; conditions: insulin added to ketogenic diet plus BYL-719
[8] = tested on: HCT116 PTEN knockout (KO) cells; assay: proliferation with PI3K inhibitors and insulin; format: cell-based, Human; conditions: insulin 10 ng/ml in presence of PI3K inhibitors GDC-0032, BYL-719

Cc1nc(NC(=O)N2CCC[C@H]2C(N)=O)sc1-c1ccnc(C(C)(C)C(F)(F)F)c1 [Apelisib, Alpelisib]
response of KPC allografts (KPC K8484 tumors; BYL-719 combined with metformin, SGLT2i or ketogenic diet, concordant with ability to reduce serum insulin): enhanced response of KPC allografts
drug efficacy (tumor models): improved drug efficacy

Cc1c(CN2CCN(C(=O)[C@H](C)O)CC2)sc2c(N3CCOCC3)nc(-c3cnc(N)nc3)nc12 [Apitolisib]
drug efficacy (tumor models): improved drug efficacy

Nc1cc(C(F)(F)F)c(-c2cc(N3CCOCC3)nc(N3CCOCC3)n2)cn1 [Buparlisib]
drug efficacy (tumor models): improved drug efficacy
efficacy (survival) [1]: significantly enhanced
growth of KPC allografts (KPC allografts): more effective response on the growth of KPC allografts than either drug alone

Cc1ccc([C@@H]2OC(CO)[C@@H](O)C(O)C2O)cc1Cc1ccc(-c2ccc(F)cc2)s1 (some centres unmarked) [Conagliflozin, Canagliflozin]
IC50 (SGLT-2): 2.2 nM

Cc1ccc([C@@H]2O[C@H](CO)[C@@H](O)[C@H](O)[C@H]2O)cc1Cc1ccc(-c2ccc(F)cc2)s1 [Conagliflozin, Canagliflozin]
overall survival (KPC K8484 tumors; added to treatment with BYL-719, vs BYL-719 alone): increases overall survival
PI3K inhibitor-induced elevation in blood glucose (hyperglycemia) [2]: decreased the resulting hyperglycemia
insulin released in response to BKM120 (c-peptide) [2]: reduced the total insulin that was released
growth signaling through mTORC1 in the tumor (pS6) [2]: reduced signaling through mTORC1 in the tumor

COc1c(OCCCN2CCOCC2)ccc2c1N=C(NC(=O)c1cnc(N)nc1)N1CCN=C21 [Copanilisib, Copanlisib]
drug efficacy (tumor models): improved drug efficacy

C[C@]1(O)C[C@@H](c2nc(-c3ccc4ccc(-c5ccccc5)nc4c3)c3c(N)nccn32)C1 [Linsitinib]
treatment efficacy (tumor volume) [3]: significantly improved
IC50 (IGF1R/INSR): 35 nM

NC1(c2ccc(-c3nc4ccn5c(=O)[nH]nc5c4cc3-c3ccccc3)cc2)CCC1 [MK2206]
IC50 (AKT1/2/3): 8 nM

CS(=O)(=O)N1CCN(Cc2cc3nc(-c4cccc5[nH]ncc45)nc(N4CCOCC4)c3s2)CC1 [Pictilisib]
drug efficacy (tumor models): improved drug efficacy

Cc1nc(-c2cn3c(n2)-c2ccc(-c4cnn(C(C)(C)C(N)=O)c4)cc2OCC3)n(C(C)C)n1 [Taselisib]
drug efficacy (tumor models): improved drug efficacy
treatment efficacy (tumor volume) [3]: significantly improved

CN(C)C(=N)NC(=N)N [metformin, Metformin]
PI3K inhibitor-induced elevation in blood glucose (hyperglycemia) [2]: only minimal impact
insulin released in response to BKM120 (c-peptide) [2]: only minimal impact
growth signaling through mTORC1 in the tumor (pS6) [2]: only minimal impact

insulin
growth (proliferation) [4]: partially rescued
therapeutic benefit of ketogenic diet plus BYL-719 [5]: dramatically reduced the therapeutic benefit
growth (proliferation) [6]: partially rescued
growth (proliferation) [7]: partially rescued
PI3K signaling (pAKT, pS6) (KPC cells; 10 ng/ml insulin in continued presence of PI3K inhibitors): partially rescue PI3K signaling
cellular proliferation (KPC cells; 10 ng/ml insulin with BKM120 (1 uM)): partial recovery of cellular proliferation
tumor growth (KPC allografted tumors): rescued tumor growth
proliferation (percent confluence) [8]: restore normal proliferation
